In patent publication US20100256153A1, “METHODS FOR PREVENTING OR REDUCING RISK OF MORTALITY” (priority 2009, published 2010):

How the values were obtained:
[1] = test system: Phase 2b/3 pooled population; assay: Pooled analysis of cardiovascular events and death in the Phase 2b/3 clinical studies; assay type: in vivo, human; details: for CEC-CV death/MI/stroke: CEC-adjudicated; for All MI / All stroke: fatal and/or non-fatal
Experimental: The mortality and adverse CV event data shown in the Tables and Figures herein were analyzed from the Phase 2b and Phase 3 studies (Phase 2b/3).
Mortality incidences caused by stroke, heart attack, heart failure, or blood vessel problems not associated with the heart or brain, were defined as CV death. Death by any means, including CV death, was defined as All-cause Mortality or All-cause death.
Acute CV events, as defined herein, includes all cardiovascular disorders associated with Phase 2b/3 subjects that were diagnosed by a medical physician during the studies as acute and clinically significant including MACE events and also procedures (for example, cardiac bypass surgery) and severe ischemic event such as unstable angina. Primary MACE means non-fatal myocardial infarction (MI), non-fatal stroke, and CV death. Secondary MACE accounts for All-cause deaths (death by any means) in addition to non-fatal MI, non-fatal stroke, and CV death.
First, two physicians at the Clinical Event Center (CEC) of the Duke Clinical Research Institute (Durham, N.C.) served as consultants to the sponsor and performed a retrospective treatment-blinded independent adjudication of all identified potential CV events. […] Adjudication was based on definitions typical for such review and prespecified by the reviewers.

[2] = test system: subjects; assay: Phase 1-3 clinical development, tolerability; assay type: in vivo, human
[3] = test system: subjects of pooled studies; assay: Ischemic serious adverse events (heart or brain related) in pooled studies, Fischer Exact Test analysis (FIG. 12); assay type: in vivo, human; details: FIG. 12, per 100 comparator
[4] = test system: non-diabetic rats; assay: Two year survival of non-diabetic rats (FIGS. 7-8); assay type: in vivo, rat; details: 25 mg/kg/day, two years
Description: (§1) In these studies, approximately sixty animals of each gender were exposed to saxagliptin or two cohorts of placebo over two years, the approximate lifetime of a rodent. […] The differences in survival time between male and female rodents are not currently explained. A possible explanation for the rat results is that the dose taken by male rats, 45 times the human equivalent dose, was closer to the human experience than the same dose taken by female rats, 112 times the human equivalent dose, and therefore the male experience may be more relevant.

[5] = test system: non-diabetic mice; assay: Two year survival of non-diabetic mice (FIGS. 9-10); assay type: in vivo, mouse; details: 50 mg/kg/day, two years
Description: as §1

[6] = test system: subjects administered sitagliptin or metformin; assay: Health insurance data analysis of heart attack, sitagliptin relative to metformin (FIG. 13); assay type: in vivo, human; details: propensity adjusted, 27,424 sitagliptin vs 80,462 metformin subjects
[7] = All Saxa (2.5, 5, 10, 20, 40, 100 mg/d), N = 3356
[8] = CEC adjudication, all saxagliptin

With `N#C[C@@H]1C[C@@H]2C[C@@H]2N1C(=O)[C@@H](N)C12CC3CC(CC(O)(C3)C1)C2` [saxagliptin, (1S,3S,5S)-2-[(2S)-2-amino-2-(3-hydroxyadamantan-1-yl)acetyl]-2-azabicyclo[3.1.0]hexane-3-carbonitrile] the “subjects having a Primary MACE (CV death/MI/stroke)” value ([1]; ALL SAXA group) was 0.7%, the “Inv-CV death/MI/stroke” value [1, 7] was 23 (0.7) n (%) and the “CEC-CV death/MI/stroke” value [1, 7] was 22 (0.7) n (%). For the same compound, the All death ([1]; All Saxa, N = 3356) was 10 (0.3) n (%), the “Other CV death” value ([1]; All Saxa, N = 3356) was 4 (0.1) n (%) and the “All MI” value ([1]; All Saxa, N = 3356) was 8 (0.2) n (%). The All stroke ([1]; All Saxa, N = 3356) was 11 (0.3) n (%), the “All Stroke (fatal and non-fatal), proportion of subjects with events” value [1, 8] was 0.3% and the “Other CV death, proportion of subjects with events” value [1, 8] was 0.1%. The “all MI, proportion of subjects with events” value [1, 8] was 0.2%, the “Acute CV Events, Incidence rate ± SE” value ([1]; Phase 2/3 Pooled Population) was 10.7 ± 1.8 events/1000 patient-years and the “Primary MACE, Incidence rate ± SE” value ([1]; Phase 2/3 Pooled Population) was 6.2 ± 1.3 events/1000 patient-years. The “Secondary MACE, Incidence rate ± SE” value ([1]; Phase 2/3 Pooled Population) was 7.0 ± 1.4 events/1000 patient-years, the All death ([1]; Saxa 2.5 mg, N = 937) was 3 (0.3) n (%) and the “Inv-CV death/MI/stroke” value ([1]; Saxa 2.5 mg, N = 937) was 6 (0.6) n (%). For the same compound, the “Other CV death” value ([1]; Saxa 2.5 mg, N = 937) was 0 n (%), the “CEC-CV death/MI/stroke” value ([1]; Saxa 2.5 mg, N = 937) was 6 (0.6) n (%) and the “All MI” value ([1]; Saxa 2.5 mg, N = 937) was 2 (0.2) n (%). The All stroke ([1]; Saxa 2.5 mg, N = 937) was 4 (0.4) n (%), the All death ([1]; Saxa 5 mg, N = 1269) was 3 (0.2) n (%) and the “Inv-CV death/MI/stroke” value ([1]; Saxa 5 mg, N = 1269) was 6 (0.5) n (%). The “Other CV death” value ([1]; Saxa 5 mg, N = 1269) was 0 n (%), the “CEC-CV death/MI/stroke” value ([1]; Saxa 5 mg, N = 1269) was 7 (0.6) n (%) and the “All MI” value ([1]; Saxa 5 mg, N = 1269) was 4 (0.3) n (%). The All stroke ([1]; Saxa 5 mg, N = 1269) was 4 (0.3) n (%), the All death ([1]; Saxa 10 mg, N = 1000) was 4 (0.4) n (%) and the “Inv-CV death/MI/stroke” value ([1]; Saxa 10 mg, N = 1000) was 11 (1.1) n (%). For the same compound, the “Other CV death” value ([1]; Saxa 10 mg, N = 1000) was 4 (0.4) n (%), the “CEC-CV death/MI/stroke” value ([1]; Saxa 10 mg, N = 1000) was 9 (0.9) n (%) and the “All MI” value ([1]; Saxa 10 mg, N = 1000) was 2 (0.2) n (%). The All stroke ([1]; Saxa 10 mg, N = 1000) was 3 (0.3) n (%), the “Proportion of subjects with SAE CHF events” value ([1]; all saxagliptin) was 0.2% and the “overall frequency of CV deaths” value ([1]; all subjects treated with saxagliptin (7/3356)) was 0.2%. For the same compound, the “all cause mortality (death by any means), frequency” value ([1]; all subjects treated with saxagliptin (10/3356)) was 0.3%, the “incidence of MACE events in higher risk subgroups versus control” value ([1]; at least one or two CV risk factors in addition to T2DM, history of hypertension or hypercholesterolemia, males, FIGS. 3, 4) was “lowered incidence MACE events” and the “MACE events incidence rate” value ([1]; subjects with a history of CV disease, FIG. 3) was 9.2 MACE events per 1000 patient-years. The “fatal CHF events” value ([1]; two fatal events in total, both on comparator) was “none”, the “adverse CV effects related to blood pressure or heart rate” value ([2]; Phase 1-3 studies overall) was “did not lead to adverse CV effects” and the tolerability ([2]; maximum oral daily doses 400 mg up to 2 weeks, 100 mg up to 6 weeks, 40 and 20 mg up to 12 weeks, 2.5, 5, 10 mg up to 2 years) was “well tolerated”. For the same compound, the “ischemic SAEs (heart attack or stroke-like events causing death, hospitalization, or near hospitalization), subjects on drug when 100 subjects on comparator had events” value [3] was 57 subjects, the survival versus placebo ([4]; female rats, FIG. 8) was “intermediate between the two placebo cohorts” and the survival versus placebo ([4]; male rats, FIG. 7) was “reduced risk of mortality or longer survival times”. The survival versus placebo ([5]; female mice, FIG. 9) was “reduced risk of mortality” and the survival versus placebo ([5]; male mice, FIG. 10) was “intermediate between the two placebo cohorts”.
For `N[C@@H](CC(=O)N1CCn2c(nnc2C(F)(F)F)C1)Cc1cc(F)c(F)cc1F` [sitagliptin], the “heart attack, subjects on sitagliptin in the time 100 subjects have a heart attack on metformin” value [6] was 65 subjects.
`N#C[C@@H]1CCCN1C(=O)CNC12CC3CC(CC(O)(C3)C1)C2` [vildagliptin, reference compound] was tested, and the “ischemic SAEs (heart attack or stroke-like events causing death, hospitalization, or near hospitalization), subjects on drug when 100 subjects on comparator had events” value [3] was 70 subjects.
